In patent US20250270209A1 (INTERLINE THERAPEUTICS, INC., priority 2022, published 2025):
pIC50: −log10 of the molar value.

Assays:
LRRK2 wild type enzyme = LRRK2 wild type enzyme (Homo sapiens, UniProt Q5S007); assay: Biochemical Assay: LRRK2 TR-FRET (LanthaScreen) kinase assay with LRRKtide substrate; settings: LRRK2 Inhibition, Table 8
In short: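 TR-FRET detection (Tb-labelled phospho-LRRKtide antibody, EDTA stop, 30 min) followed a 120 min, 23 °C reaction of 3 nM wild-type human LRRK2 with LRRKtide (400 nM) and ATP (25 μM) in Tris pH 8.0. Compounds: 11-point 3-fold series from 10 μM, 15 min enzyme preincubation.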

[1] = target: T1, wild type LRRK2 overexpressed in recombinant HEK-293T cells (Homo sapiens, UniProt Q5S007); assay: pS935 LRRK2 Cell Assay (HTRF, phospho-LRRK2 Ser935); assay type: cell-based; settings: LRRK2 Inhibition, Table 8, 2 hours compound incubation
T1 construct: host or cells: HEK293T (transient transfection with pCMV-LRRK2 WT plasmid)
In short: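 Phospho-Ser935 LRRK2 measured by two-antibody HTRF (Eu-cryptate donor, d2 acceptor; 665/615 nm ratio) after overnight detection at 23° C. Before lysis, transiently LRRK2-transfected HEK-293T cells were exposed 2 h at 37° C to a 9-point, 3-fold series from 10 μM, with DMSO at 0.2%.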

T1 sequence (Q5S007 whole entry): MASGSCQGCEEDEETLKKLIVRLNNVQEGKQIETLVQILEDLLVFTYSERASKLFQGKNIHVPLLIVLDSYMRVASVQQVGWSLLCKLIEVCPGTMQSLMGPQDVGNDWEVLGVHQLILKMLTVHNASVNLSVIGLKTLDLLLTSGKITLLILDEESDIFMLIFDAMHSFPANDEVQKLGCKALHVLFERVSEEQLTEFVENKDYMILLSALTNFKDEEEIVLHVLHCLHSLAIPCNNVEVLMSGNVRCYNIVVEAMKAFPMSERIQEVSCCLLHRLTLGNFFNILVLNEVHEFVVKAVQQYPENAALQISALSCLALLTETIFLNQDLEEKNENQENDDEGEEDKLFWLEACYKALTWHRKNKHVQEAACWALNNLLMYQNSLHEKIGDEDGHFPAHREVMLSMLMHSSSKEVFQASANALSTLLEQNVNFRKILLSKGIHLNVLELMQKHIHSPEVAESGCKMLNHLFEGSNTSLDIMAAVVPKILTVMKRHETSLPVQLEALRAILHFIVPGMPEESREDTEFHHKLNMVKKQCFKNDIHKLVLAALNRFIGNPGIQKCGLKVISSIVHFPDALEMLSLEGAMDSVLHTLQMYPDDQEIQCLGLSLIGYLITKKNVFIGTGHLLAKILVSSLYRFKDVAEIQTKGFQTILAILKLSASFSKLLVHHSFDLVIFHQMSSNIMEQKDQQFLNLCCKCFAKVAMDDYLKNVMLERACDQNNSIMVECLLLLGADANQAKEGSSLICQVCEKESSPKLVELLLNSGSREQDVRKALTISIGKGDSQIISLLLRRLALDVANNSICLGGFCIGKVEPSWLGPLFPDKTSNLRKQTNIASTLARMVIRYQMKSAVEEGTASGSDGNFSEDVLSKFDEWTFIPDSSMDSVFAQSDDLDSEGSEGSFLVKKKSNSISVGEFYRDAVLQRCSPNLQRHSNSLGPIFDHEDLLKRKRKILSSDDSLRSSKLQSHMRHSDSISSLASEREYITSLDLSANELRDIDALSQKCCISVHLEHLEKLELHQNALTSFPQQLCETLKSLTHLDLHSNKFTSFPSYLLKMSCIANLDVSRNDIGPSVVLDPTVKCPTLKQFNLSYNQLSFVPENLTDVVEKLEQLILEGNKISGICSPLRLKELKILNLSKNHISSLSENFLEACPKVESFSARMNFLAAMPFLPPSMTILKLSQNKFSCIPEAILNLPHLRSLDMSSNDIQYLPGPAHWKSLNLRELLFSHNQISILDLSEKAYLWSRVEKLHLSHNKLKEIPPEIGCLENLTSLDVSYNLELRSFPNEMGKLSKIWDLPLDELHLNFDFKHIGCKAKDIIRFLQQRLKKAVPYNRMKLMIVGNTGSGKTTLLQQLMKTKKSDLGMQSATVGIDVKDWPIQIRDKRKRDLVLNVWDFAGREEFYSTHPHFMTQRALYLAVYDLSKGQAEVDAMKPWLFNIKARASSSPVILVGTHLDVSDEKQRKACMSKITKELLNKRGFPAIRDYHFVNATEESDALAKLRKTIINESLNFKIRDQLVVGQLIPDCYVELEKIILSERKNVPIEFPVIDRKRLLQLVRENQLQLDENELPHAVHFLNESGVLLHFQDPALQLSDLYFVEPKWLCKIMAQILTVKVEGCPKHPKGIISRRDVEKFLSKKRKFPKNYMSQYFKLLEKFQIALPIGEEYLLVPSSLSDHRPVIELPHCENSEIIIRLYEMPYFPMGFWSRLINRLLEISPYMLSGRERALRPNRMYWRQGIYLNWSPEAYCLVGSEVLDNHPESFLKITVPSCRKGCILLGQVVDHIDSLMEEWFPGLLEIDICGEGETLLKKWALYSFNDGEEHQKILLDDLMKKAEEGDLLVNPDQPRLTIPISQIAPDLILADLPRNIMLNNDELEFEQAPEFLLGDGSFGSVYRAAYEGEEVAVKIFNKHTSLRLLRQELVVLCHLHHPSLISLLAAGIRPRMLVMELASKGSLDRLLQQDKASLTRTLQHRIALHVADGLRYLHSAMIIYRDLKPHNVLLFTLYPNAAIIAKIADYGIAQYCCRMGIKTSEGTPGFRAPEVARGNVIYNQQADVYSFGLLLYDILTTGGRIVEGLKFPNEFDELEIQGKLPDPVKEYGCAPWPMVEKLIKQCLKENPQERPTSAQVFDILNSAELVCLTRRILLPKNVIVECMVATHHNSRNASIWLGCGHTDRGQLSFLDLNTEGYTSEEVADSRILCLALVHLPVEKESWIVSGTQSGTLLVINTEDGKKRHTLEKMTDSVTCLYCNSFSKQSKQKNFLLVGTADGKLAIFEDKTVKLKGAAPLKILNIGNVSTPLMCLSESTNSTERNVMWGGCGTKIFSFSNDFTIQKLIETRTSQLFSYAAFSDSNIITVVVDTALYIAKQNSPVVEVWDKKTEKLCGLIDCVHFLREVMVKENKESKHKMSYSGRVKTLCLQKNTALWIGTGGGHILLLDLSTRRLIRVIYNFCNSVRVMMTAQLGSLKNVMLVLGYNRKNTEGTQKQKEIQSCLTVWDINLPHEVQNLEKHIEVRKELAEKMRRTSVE
Chain of LRRK2 wild type enzyme (Q5S007 whole entry): as above

Structure (SMILES) | pIC50 (LRRK2 wild type enzyme) | pIC50 [1]
C[C@@H]1C[C@H](n2c(CC(=O)Nc3cn(C)c(C(F)(F)F)cc3=O)nc3cnc4ccc(C#N)cc4c32)CCO1 [Compound 232, N-[1-methyl-4-oxo-6-(trifluoromethyl)-1,4-dihydro-3-pyridyl]{3-[(2R,4R)-2-methyltetrahydro-2H-pyran-4-yl]-12-cyano-3,5,8-triazatricyclo[7.4.0.0^2,6]trideca-1,4,6,8,10,12-hexaen-4-yl}acetamide] | 9.10 | 7.43
C[C@@H]1C[C@H](n2c(CC(=O)NCC(F)(F)CO)nc3cnc4ccc(C#N)cc4c32)CCO1 [Compound 233, N-(2,2-difluoro-3-hydroxypropyl){3-[(2R,4R)-2-methyltetrahydro-2H-pyran-4-yl]-12-cyano-3,5,8-triazatricyclo[7.4.0.0^2,6]trideca-1,4,6,8,10,12-hexaen-4-yl}acetamide] | 9.08 | 6.61
C[C@@H]1C[C@H](n2c(CC(=O)Nc3cn(C)ccc3=O)nc3cnc4ccc(C#N)cc4c32)CCO1 [Compound 234, N-(1-methyl-4-oxo-1,4-dihydro-3-pyridyl){3-[(2R,4R)-2-methyltetrahydro-2H-pyran-4-yl]-12-cyano-3,5,8-triazatricyclo[7.4.0.0^2,6]trideca-1,4,6,8,10,12-hexaen-4-yl}acetamide] | 9.18 | 6.39
COc1cc(F)c(NC(=O)Cc2nc3cnc4ccc(C#N)cc4c3n2[C@@H]2CCO[C@H](C)C2)cn1 [Compound 235, N-(4-fluoro-6-methoxy-3-pyridyl){3-[(2R,4R)-2-methyltetrahydro-2H-pyran-4-yl]-12-cyano-3,5,8-triazatricyclo[7.4.0.0^2,6]trideca-1,4,6,8,10,12-hexaen-4-yl}acetamide] | 9.34 | 8.00
Cc1cc(C)c(NC(=O)Cc2nc3cnc4ccc(C#N)cc4c3n2[C@@H]2CCO[C@H](C)C2)cn1 [Compound 236, N-(4,6-dimethyl-3-pyridyl){3-[(2R,4R)-2-methyltetrahydro-2H-pyran-4-yl]-12-cyano-3,5,8-triazatricyclo[7.4.0.0^2,6]trideca-1,4,6,8,10,12-hexaen-4-yl}acetamide] | 9.45 | 8.13
Cc1c(NC(=O)Cc2nc3cnc4ccc(C#N)cc4c3n2[C@@H]2CCO[C@H](C)C2)cnn1C [Compound 237, N-(1-methyl-5-methyl-4-pyrazolyl){3-[(2R,4R)-2-methyltetrahydro-2H-pyran-4-yl]-12-cyano-3,5,8-triazatricyclo[7.4.0.0^2,6]trideca-1,4,6,8,10,12-hexaen-4-yl}acetamide] | 9.39 | 7.63
Cc1nocc1NC(=O)Cc1nc2cnc3ccc(C#N)cc3c2n1[C@@H]1CCO[C@H](C)C1 [Compound 238, N-(3-methyl-4-isoxazolyl){3-[(2R,4R)-2-methyltetrahydro-2H-pyran-4-yl]-12-cyano-3,5,8-triazatricyclo[7.4.0.0^2,6]trideca-1,4,6,8,10,12-hexaen-4-yl}acetamide] | 9.38 | 8.15
C[C@@H]1C[C@H](n2c(CC(=O)NCC(C)(C)C#N)nc3cnc4ccc(C#N)cc4c32)CCO1 [Compound 239, N-(2-cyano-2-methylpropyl){3-[(2R,4R)-2-methyltetrahydro-2H-pyran-4-yl]-12-cyano-3,5,8-triazatricyclo[7.4.0.0^2,6]trideca-1(9),2(6),4,7,10,12-hexaen-4-yl}acetamide] | 8.88 | 6.77
C[C@@H]1C[C@H](n2c(CC(=O)Nc3cccn(CC(C)(C)O)c3=O)nc3cnc4ccc(C#N)cc4c32)CCO1 [Compound 240, N-[1-(2-hydroxy-2-methylpropyl)-2-oxo-1,2-dihydro-3-pyridyl]{3-[(2R,4R)-2-methyltetrahydro-2H-pyran-4-yl]-12-cyano-3,5,8-triazatricyclo[7.4.0.0^2,6]trideca-1(9),2(6),4,7,10,12-hexaen-4-yl}acetamide] | 9.48 | 7.57
C[C@@H]1C[C@H](n2c(CC(=O)NCC(C)(C)CO)nc3cnc4ccc(C#N)cc4c32)CCO1 [Compound 241, N-(3-hydroxy-2,2-dimethylpropyl){3-[(2R,4R)-2-methyltetrahydro-2H-pyran-4-yl]-12-cyano-3,5,8-triazatricyclo[7.4.0.0^2,6]trideca-1(9),2(6),4,7,10,12-hexaen-4-yl}acetamide] | 9.00 | 7.11
C[C@@H]1C[C@H](n2c(CC(=O)NCC3(CO)CC3)nc3cnc4ccc(C#N)cc4c32)CCO1 [Compound 242, N-[1-(hydroxymethyl)cyclopropyl]methyl{3-[(2R,4R)-2-methyltetrahydro-2H-pyran-4-yl]-12-cyano-3,5,8-triazatricyclo[7.4.0.0^2,6]trideca-1(9),2(6),4,7,10,12-hexaen-4-yl}acetamide] | 9.16 | 6.97
COc1ncc(NC(=O)Cc2nc3cnc4ccc(C#N)cc4c3n2[C@@H]2CCO[C@H](C)C2)c(C)n1 [Compound 243, N-(2-methoxy-4-methyl-5-pyrimidinyl){3-[(2R,4R)-2-methyltetrahydro-2H-pyran-4-yl]-12-cyano-3,5,8-triazatricyclo[7.4.0.0^2,6]trideca-1(9),2(6),4,7,10,12-hexaen-4-yl}acetamide] | 9.25 | 7.94
Cc1nc2n(n1)CC(NC(=O)Cc1nc3cnc4ccc(C#N)cc4c3n1[C@@H]1CCO[C@H](C)C1)CC2 (stereo partly drawn) [Compound 244, N-(2-methyl-4,5,6,7-tetrahydro-1,3,3a-triaza-5-indenyl){3-[(2R,4R)-2-methyltetrahydro-2H-pyran-4-yl]-12-cyano-3,5,8-triazatricyclo[7.4.0.0^2,6]trideca-1,4,6,8,10,12-hexaen-4-yl}acetamide] | 8.86 | 5.58
C[C@@H]1C[C@H](n2c(CC(=O)N[C@@H]3C[C@H]3F)nc3cnc4ccc(C#N)cc4c32)CCO1 [Compound 246, N-[(1R,2R)-2-fluorocyclopropyl]{3-[(2R,4R)-2-methyltetrahydro-2H-pyran-4-yl]-12-cyano-3,5,8-triazatricyclo[7.4.0.0^2,6]trideca-1(13),2(6),4,7,9,11-hexaen-4-yl}acetamide] | 8.96 | 7.28
COc1ncnc(OC)c1NC(=O)Cc1nc2cnc3ccc(C#N)cc3c2n1[C@@H]1CCO[C@H](C)C1 [Compound 247, N-(4,6-dimethoxy-5-pyrimidinyl){3-[(2R,4R)-2-methyltetrahydro-2H-pyran-4-yl]-12-cyano-3,5,8-triazatricyclo[7.4.0.0^2,6]trideca-1(9),2(6),4,7,10,12-hexaen-4-yl}acetamide] | 9.46 | 8.39
COc1nc(C)ncc1NC(=O)Cc1nc2cnc3ccc(C#N)cc3c2n1[C@@H]1CCO[C@H](C)C1 [Compound 248, N-(4-methoxy-2-methyl-5-pyrimidinyl){3-[(2R,4R)-2-methyltetrahydro-2H-pyran-4-yl]-12-cyano-3,5,8-triazatricyclo[7.4.0.0^2,6]trideca-1(9),2(6),4,7,10,12-hexaen-4-yl}acetamide] | 9.40 | 8.38
C[C@@H]1C[C@H](n2c(CC(=O)NC3CC34CC4)nc3cnc4ccc(C#N)cc4c32)CCO1 (stereo partly drawn) [Compound 249, N-1-spiro[2.2]pentyl{3-[(2R,4R)-2-methyltetrahydro-2H-pyran-4-yl]-12-cyano-3,5,8-triazatricyclo[7.4.0.0^2,6]trideca-1(9),2(6),4,7,10,12-hexaen-4-yl}acetamide] | 9.16 | 7.76
